Biological target: T1, c-kit autophosphorylation (Phospho c-Kit Tyr721) in HMC 1.1 (exon 11/13) cells, V654A (Homo sapiens, UniProt P10721, V560G/V654A)
T1 construct: endogenous in cells; host or cells: HMC 1.1 (exon 11/13) cells
Experiment: pKIT Meso Scale Discovery (MSD) assay, inhibition of autophosphorylation of KIT, HMC1.1_V654A
Format: cell-based
Conditions: Table 1, cell line not named for Table 1, b1056 names pKIT HMC1.1_V654A, read-out: Code (IC50 for inhibition of autophosphorylation of KIT, pKIT MSD assay)
Outline: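 HMC1.1 cells were serum-starved for 4 h in serum-free, iron-free, phenol red-free IMDM, then treated with compound in dose-response for 90 min at 37 °C. Staurosporine and DMSO served as controls. Lysates were analysed by MSD electrochemiluminescence immunoassay for phospho-c-Kit Tyr721, and % inhibition of autophosphorylation was derived.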

T1 sequence (P10721 26-976 V560G/V654A): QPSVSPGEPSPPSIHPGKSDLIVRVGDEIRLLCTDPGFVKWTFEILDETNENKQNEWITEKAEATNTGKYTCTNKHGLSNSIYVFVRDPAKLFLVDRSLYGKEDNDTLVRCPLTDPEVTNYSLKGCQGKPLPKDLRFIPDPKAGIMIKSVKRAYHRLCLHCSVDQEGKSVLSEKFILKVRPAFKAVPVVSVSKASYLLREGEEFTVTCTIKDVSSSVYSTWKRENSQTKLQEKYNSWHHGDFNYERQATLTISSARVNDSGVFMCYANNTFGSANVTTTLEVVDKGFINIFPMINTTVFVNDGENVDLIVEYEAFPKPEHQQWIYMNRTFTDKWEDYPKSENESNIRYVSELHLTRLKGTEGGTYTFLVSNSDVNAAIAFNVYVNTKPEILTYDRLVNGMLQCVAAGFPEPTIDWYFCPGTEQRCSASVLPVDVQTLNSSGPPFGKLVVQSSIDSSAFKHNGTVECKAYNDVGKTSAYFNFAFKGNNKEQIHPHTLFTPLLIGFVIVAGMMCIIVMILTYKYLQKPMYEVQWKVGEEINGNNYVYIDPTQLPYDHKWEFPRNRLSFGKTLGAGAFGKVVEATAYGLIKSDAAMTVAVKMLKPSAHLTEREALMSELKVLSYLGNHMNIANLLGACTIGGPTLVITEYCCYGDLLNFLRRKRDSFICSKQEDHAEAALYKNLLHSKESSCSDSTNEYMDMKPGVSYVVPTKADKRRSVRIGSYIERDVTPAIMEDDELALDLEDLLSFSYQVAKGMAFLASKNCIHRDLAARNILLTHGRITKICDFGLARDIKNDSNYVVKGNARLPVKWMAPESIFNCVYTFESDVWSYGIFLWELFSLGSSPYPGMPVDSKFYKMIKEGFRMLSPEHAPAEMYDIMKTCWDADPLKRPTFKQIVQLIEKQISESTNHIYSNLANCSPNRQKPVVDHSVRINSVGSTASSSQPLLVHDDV

| Structure (SMILES) | IC50 [nM] |
| --- | --- |
| CNCCn1cc(-c2cnc(Nc3cc(N)nc(C(F)F)n3)cc2OC2COC2)cn1 [Compound 175, 2-(difluoromethyl)-N4-(5-(1-(2-(methylamino)ethyl)-1H-pyrazol-4-yl)-4-(oxetan-3-yloxy)pyridin-2-yl)pyrimidine-4,6-diamine] | > 40 |
| Cn1cc(-c2cnc(Nc3cc(N)nc(C(F)F)n3)cc2OCc2cccc(N)c2)cn1 [Compound 178, N4-(4-((3-aminobenzyl)oxy)-5-(1-methyl-1H-pyrazol-4-yl)pyridin-2-yl)-2-(difluoromethyl)pyrimidine-4,6-diamine] | < 10 |
| Nc1cc(Nc2cc(OC3CC3)c(-c3cnn(CCN4CCC4)c3)cn2)nc(C(F)F)n1 [Compound 182, N4-(5-(1-(2-(azetidin-1-yl)ethyl)-1H-pyrazol-4-yl)-4-cyclopropoxypyridin-2-yl)-2-(difluoromethyl)pyrimidine-4,6-diamine] | < 10 |
| CN1CC(n2cc(-c3cnc(Nc4cc(N)nc(C(F)F)n4)cc3OC3COC3)cn2)C1 [Compound 183, 2-(difluoromethyl)-N4-(5-(1-(1-methylazetidin-3-yl)-1H-pyrazol-4-yl)-4-(oxetan-3-yloxy)pyridin-2-yl)pyrimidine-4,6-diamine] | > 40 |
| CNC(C)(C)Cn1cc(-c2cnc(Nc3cc(N)nc(C(F)F)n3)cc2OC2CC2)cn1 [Compound 184, N4-(4-cyclopropoxy-5-(1-(2-methyl-2-(methylamino)propyl)-1H-pyrazol-4-yl)pyridin-2-yl)-2-(difluoromethyl)pyrimidine-4,6-diamine] | < 10 |
| CC(C)(O)CCn1cc(-c2cnc(Nc3cc(N)nc(C(F)F)n3)cc2OC2CC2)cn1 [Compound 185, 4-(4-(6-((6-amino-2-(difluoromethyl)pyrimidin-4-yl)amino)-4-cyclopropoxypyridin-3-yl)-1H-pyrazol-1-yl)-2-methylbutan-2-ol] | < 10 |
| CN(C)CCn1cc(-c2cnc(Nc3cc(N)nc(C(F)F)n3)cc2OC(F)(F)F)cn1 [Compound 194, 2-(difluoromethyl)-N4-(5-(1-(2-(dimethylamino)ethyl)-1H-pyrazol-4-yl)-4-(trifluoromethoxy)pyridin-2-yl)pyrimidine-4,6-diamine] | < 10 |
| COc1cc(Nc2cc(N)nc(C(F)F)n2)ncc1-c1cnn(CCNCC(F)(F)F)c1 [Compound 197, 2-(difluoromethyl)-N4-(4-methoxy-5-(1-(2-((2,2,2-trifluoroethyl)amino)ethyl)-1H-pyrazol-4-yl)pyridin-2-yl)pyrimidine-4,6-diamine] | < 10 |
| CC(C)(O)Cn1cc(-c2cnc(Nc3cc(N)nc(C(F)F)n3)cc2OC(F)(F)F)cn1 [Compound 198, 1-(4-(6-((6-amino-2-(difluoromethyl)pyrimidin-4-yl)amino)-4-(trifluoromethoxy)pyridin-3-yl)-1H-pyrazol-1-yl)-2-methylpropan-2-ol] | < 10 |
| COc1cc(Nc2cc(N)nc(C(F)F)n2)ncc1-c1cnn(CCN(C)CC(F)(F)F)c1 [Compound 199, 2-(difluoromethyl)-N4-(4-methoxy-5-(1-(2-(methyl(2,2,2-trifluoroethyl)amino)ethyl)-1H-pyrazol-4-yl)pyridin-2-yl)pyrimidine-4,6-diamine] | < 10 |

Second part, the compound after the results:

| IC50 [nM] | Structure (SMILES) |
| --- | --- |
| < 10 | C[C@@H](CF)Nc1cc(Nc2cc(N)nc(C(F)F)n2)ncc1C(=O)NCc1cocn1 [Compound 176, (S)-6-((6-amino-2-(difluoromethyl)pyrimidin-4-yl)amino)-4-((1-fluoropropan-2-yl)amino)-N-(oxazol-4-ylmethyl)nicotinamide] |
| 10 to 40 | C[C@H](CF)Nc1cc(Nc2cc(N)nc(C(F)F)n2)ncc1C(=O)NCc1cocn1 [Compound 177, (R)-6-((6-amino-2-(difluoromethyl)pyrimidin-4-yl)amino)-4-((1-fluoropropan-2-yl)amino)-N-(oxazol-4-ylmethyl)nicotinamide] |
| < 10 | CN(C)CCn1cc(-c2cnc(Nc3cc(N)nc(C(F)F)n3)cc2OC(F)F)cn1 [Compound 179, N4-(4-(difluoromethoxy)-5-(1-(2-(dimethylamino)ethyl)-1H-pyrazol-4-yl)pyridin-2-yl)-2-(difluoromethyl)pyrimidine-4,6-diamine] |
| < 10 | CNC(C)Cn1cc(-c2cnc(Nc3cc(N)nc(C(F)F)n3)cc2OC(F)F)cn1 (centres unmarked) [Compound 180, N4-(4-(difluoromethoxy)-5-(1-(2-(methylamino)propyl)-1H-pyrazol-4-yl)pyridin-2-yl)-2-(difluoromethyl)pyrimidine-4,6-diamine] |
| < 10 | CC(C)(O)Cn1cc(-c2cnc(Nc3cc(N)nc(C(F)F)n3)cc2OC(F)F)cn1 [Compound 181, 1-(4-(6-((6-amino-2-(difluoromethyl)pyrimidin-4-yl)amino)-4-(difluoromethoxy)pyridin-3-yl)-1H-pyrazol-1-yl)-2-methylpropan-2-ol] |
| < 10 | C[C@@H](CF)Nc1cc(Nc2cc(N)nc(C(F)F)n2)ncc1C(=O)NCc1ccccn1 [Compound 186, (S)-6-((6-amino-2-(difluoromethyl)pyrimidin-4-yl)amino)-4-((1-fluoropropan-2-yl)amino)-N-(pyridin-2-ylmethyl)nicotinamide] |
| 10 to 40 | C[C@H](CF)Nc1cc(Nc2cc(N)nc(C(F)F)n2)ncc1C(=O)NCc1ccccn1 [Compound 187, (R)-6-((6-amino-2-(difluoromethyl)pyrimidin-4-yl)amino)-4-((1-fluoropropan-2-yl)amino)-N-(pyridin-2-ylmethyl)nicotinamide] |
| 10 to 40 | C[C@@H](CF)Nc1cc(Nc2cc(N)nc(C(F)F)n2)ncc1C(=O)NC12CC(CO)(C1)C2 [Compound 188, (S)-6-((6-amino-2-(difluoromethyl)pyrimidin-4-yl)amino)-4-((1-fluoropropan-2-yl)amino)-N-(3-(hydroxymethyl)bicyclo[1.1.1]pentan-1-yl)nicotinamide] |
| 10 to 40 | C[C@H](CF)Nc1cc(Nc2cc(N)nc(C(F)F)n2)ncc1C(=O)NC12CC(CO)(C1)C2 [Compound 189, (R)-6-((6-amino-2-(difluoromethyl)pyrimidin-4-yl)amino)-4-((1-fluoropropan-2-yl)amino)-N-(3-(hydroxymethyl)bicyclo[1.1.1]pentan-1-yl)nicotinamide] |
| < 10 | CC(CF)Oc1cc(Nc2cc(N)nc(C(F)F)n2)ncc1-c1cnn(CC(C)(C)O)c1 (centres unmarked) [Compound 190, 1-(4-(6-((6-amino-2-(difluoromethyl)pyrimidin-4-yl)amino)-4-((1-fluoropropan-2-yl)oxy)pyridin-3-yl)-1H-pyrazol-1-yl)-2-methylpropan-2-ol] |
| < 10 | Nc1cc(Nc2cc(OC(F)F)c(-c3cnn(CCN4CCC4)c3)cn2)nc(C(F)F)n1 [Compound 191, N4-(5-(1-(2-(azetidin-1-yl)ethyl)-1H-pyrazol-4-yl)-4-(difluoromethoxy)pyridin-2-yl)-2-(difluoromethyl)pyrimidine-4,6-diamine] |
| < 10 | CN1CCC(n2cc(-c3cnc(Nc4cc(N)nc(C(F)F)n4)cc3OC(F)F)cn2)C1 (centres unmarked) [Compound 192, N4-(4-(difluoromethoxy)-5-(1-(1-methylpyrrolidin-3-yl)-1H-pyrazol-4-yl)pyridin-2-yl)-2-(difluoromethyl)pyrimidine-4,6-diamine] |
| < 10 | CNC(C)(C)Cn1cc(-c2cnc(Nc3cc(N)nc(C(F)F)n3)cc2OC(F)F)cn1 [Compound 193, N4-(4-(difluoromethoxy)-5-(1-(2-methyl-2-(methylamino)propyl)-1H-pyrazol-4-yl)pyridin-2-yl)-2-(difluoromethyl)pyrimidine-4,6-diamine] |

From US20250270190A1, “KIT INHIBITORS” (BLUEPRINT MEDICINES CORPORATION, priority 2022, published 2025)
